Experimental findings from patent publication US20250195521A1 (Revolution Medicines, Inc., priority 2020, published 2025) are described below.

Molecules are shown by their SMILES. Where two headings read alike, the source gives them in different places. A value given as a limit tells only on which side of the number the result lay.

Assay [1] has as its system NCI-H358 cells (K-Ras G12C). Nature of the assay: CellTiter-Glo cell viability, NCI-H358. The note with it: Homo sapiens, NCI-H358, 120 h, read-out: H358 Cell Viability IC50. The class given is cell-based, human. Summed up:
(§1)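 Endpoint: CellTiter-Glo luminescence on day 5, following ~30 min at room temperature. Data as (sample/mean DMSO)×100, four-parameter logistic fit.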

Assay [2] relates to K-Ras G12C (NCI-H358 cells). Nature of the assay: Potency assay: pERK in NCI-H358 cells. It is filed as cell-based, human. The note with it: Homo sapiens, read-out: pERK EC50 (H358 KRAS G12C). The method, boiled down:
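Cells plated the day before were exposed for 4 h at 37° C, 5% CO2 to a 10-point, 3-fold DMSO dilution series (10 mM top stock), in duplicate. Phospho-ERK was read by AlphaLISA SureFire Ultra or by In-Cell Western with DRAQ5 DNA stain, and IC50 came from a 4-parameter sigmoidal fit.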

Assay [3] relates to Capan-1 cells (K-Ras G12V). Nature of the assay: CellTiter-Glo cell viability, Capan-1. It is filed as cell-based, human. The note with it: Homo sapiens, CAPAN-1, 120 h, read-out: Capan-1 Cell Viability IC50. The method, boiled down: as §1
Assay [4] concerns the target K-Ras G12C(GMP-PNP) binding to BRAF RBD (Homo sapiens (Human), UniProt P01116+P62937, G12C). Nature of the assay: Disruption of BRAF RBD interaction with K-Ras (FRET / MOA assay), K-Ras G12C. The class given is biochemical. Conditions: read-out: KRAS G12C FRET IC50. The method, boiled down:
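Cpd 10-pt 3-fold dilution, top 30 μM final; Ras/CypA/BRAF RBD mix 3 h, 25° C. Add anti-His Eu-W1024 10 nM + anti-GST APC 50 nM final, 1.5 h. Readout TR-FRET ratio decrease vs DMSO → IC50.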

Sequence of K-Ras G12C(GMP-PNP) binding to BRAF RBD (P01116 other isoform, or with tags, fused parts or gaps G12C): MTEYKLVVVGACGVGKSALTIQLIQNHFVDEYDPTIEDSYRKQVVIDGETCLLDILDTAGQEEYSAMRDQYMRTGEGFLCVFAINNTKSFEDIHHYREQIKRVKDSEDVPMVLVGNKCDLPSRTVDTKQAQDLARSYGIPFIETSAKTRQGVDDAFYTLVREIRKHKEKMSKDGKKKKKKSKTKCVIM
Sequence of K-Ras G12C(GMP-PNP) binding to BRAF RBD (P62937 whole entry): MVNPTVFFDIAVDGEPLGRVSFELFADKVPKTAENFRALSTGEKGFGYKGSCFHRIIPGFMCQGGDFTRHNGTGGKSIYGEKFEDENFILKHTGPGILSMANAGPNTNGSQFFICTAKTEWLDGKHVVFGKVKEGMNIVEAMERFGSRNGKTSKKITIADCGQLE

On to `CCn1c(-c2cccnc2[C@H](C)OC)c2c3cc(ccc31)-c1csc(n1)C[C@H](NC(=O)[C@H](C(C)C)N(C)C(=O)N1CCCC13CN(C)C3)C(=O)N1CCC[C@H](N1)C(=O)OCC(C)(C)C2` [Compound A545], for which the IC50 in assay [1] (K-Ras G12C, 5-day treatment) lay within 100 to 1000 nM; in assay [3] (K-Ras G12V, 5-day treatment), 100 to 1000 nM; in assay [4] it was 10 to 100 nM. The 50% effective concentration (EC50) in assay [2] (NCI-H358 cells, 4 hours) is less than 5000 nM.
As to `CCn1c(-c2cccnc2[C@H](C)OC)c2c3cc(ccc31)-c1cc(O)cc(c1)C[C@H](NC(=O)[C@H](C(C)C)N(C)C(=O)[C@@H]1OCC[C@H]1c1ccccc1)C(=O)N1CCC[C@H](N1)C(=O)OCC(C)(C)C2` [Compound A584], the IC50 is 10 to 100 nM in assay [1] (K-Ras G12C, 5-day treatment); 100 to 1000 nM in assay [3] (K-Ras G12V, 5-day treatment); 10 to 100 nM in assay [4]. Besides, the EC50 in assay [2] (NCI-H358 cells, 4 hours) is less than 5000 nM.
With `CCn1c(-c2cccnc2[C@H](C)OC)c2c3cc(ccc31)-c1csc(n1)C[C@H](NC(=O)[C@H](C(C)C)N(C)C(=O)N1CCN(C(=O)[C@@H]3CCCN3C)CC1)C(=O)N1CCC[C@H](N1)C(=O)OCC(C)(C)C2` [Compound A596], the half-maximal inhibitory concentration (IC50) in assay [1] (K-Ras G12C, 5-day treatment) lay within 10 to 100 nM; in assay [3] (K-Ras G12V, 5-day treatment), 100 to 1000 nM; in assay [4] it was 10 to 100 nM. The EC50 in assay [2] (NCI-H358 cells, 4 hours) is less than 5000 nM.
As for `CCn1c(-c2cccnc2[C@H](C)OC)c2c3cc(ccc31)-c1csc(n1)C[C@H](NC(=O)[C@H](C(C)C)N(C)C(=O)N1CC(O)(CN(C)C)C1)C(=O)N1CCC[C@H](N1)C(=O)OCC(C)(C)C2` [Compound A597], the half-maximal inhibitory concentration (IC50) in assay [1] (K-Ras G12C, 5-day treatment) lay within 10 to 100 nM; in assay [3] (K-Ras G12V, 5-day treatment), 100 to 1000 nM; in assay [4], 10 to 100 nM. Further, the concentration giving a half-maximal response (EC50) in assay [2] (NCI-H358 cells, 4 hours) is less than 5000 nM.
Take `CCn1c(-c2cccnc2[C@H](C)OC)c2c3cc(ccc31)-c1csc(n1)[C@@H](OC)[C@H](NC(=O)[C@H](C(C)C)N(C)C(=O)N(C)C)C(=O)N1CCC[C@H](N1)C(=O)OCC(C)(C)C2` [Compound A598, (2S)—N-((6^3S,3S,4S,Z)-1^1-ethyl-3-methoxy-1^2-(2-((S)-1-methoxyethyl)pyridin-3-yl)-10,10-dimethyl-5,7-dioxo-6^1,6^2,6^3,6^4,6^5,6^6-hexahydro-1^1H-8-oxa-2 (4,2)-thiazola-1 (5,3)-indola-6 (1,3)-pyridazinacycloundecaphane-4-yl)-3-methyl-2-(1,3,3-trimethylureido) butanamide]: the half-inhibitory concentration (IC50) fell in the range of 100 to 1000 nM in assay [1], 100 to 1000 nM in assay [3] and 10 to 100 nM in assay [4]. Moreover, the concentration for a half-maximal effect (EC50) in assay [2] (NCI-H358, 4 h) was less than 5000 nM.
With `CCn1c(-c2cccnc2[C@H](C)OC)c2c3cc(ccc31)-c1csc(n1)C[C@H](NC(=O)[C@H](C(C)C)N(C)C(=O)N1CC3(CCN(C)C3)C1)C(=O)N1CCC[C@H](N1)C(=O)OCC(C)(C)C2` [Compound A602], the IC50 was in the range of 100 to 1000 nM in assay [1] (K-Ras G12C, 5-day treatment); 100 to 1000 nM in assay [3] (K-Ras G12V, 5-day treatment); 10 to 100 nM in assay [4]. The EC50 in assay [2] (NCI-H358 cells, 4 hours) is less than 5000 nM.
